Here are results for three compounds from patent US20090298804A1, “Novel Compounds and Methods for Their Production” (priority 2006, published 2009).

Experiment [1] has as its system Reverse transcriptase. To be noted: cited from earlier work.
The target of experiment [2] is terminal deoxynucleotidyl transferase (Homo sapiens, UniProt P04053). To be noted: cited from earlier work.
Experiment [3] relates to CNXF 498NL. Kind of experiment: Monolayer proliferation assay (modified propidium iodide assay), CNXF 498NL. Format: cell-based, human. To be noted: CNXF 498NL (CNS), 4 days continuous exposure. Here is the method: (§1) In vitro evaluation of compounds for anticancer activity in a panel of human tumour cell lines in a monolayer proliferation assay was carried out at the Oncotest Testing Facility, Institute for Experimental Oncology, Oncotest GmbH, Freiburg.
(§2) The Oncotest cell lines are established from human tumor xenografts as described by Roth et al., (1999). The origin of the donor xenografts was described by Fiebig et al., (1999). Other cell lines were either obtained from the NCI (DU145, MCF-7) or purchased from DSMZ, Braunschweig, Germany.
(§3) All cell lines, unless otherwise specified, were grown at 37° C. in a humidified atmosphere (95% air, 5% CO2) in a ‘ready-mix’ medium containing RPMI 1640 medium, 10% fetal calf serum, and 0.1 mg/mL gentamicin (PAA, Cölbe, Germany).
(§4) A modified propidium iodide assay was used to assess the effects of the test compound(s) on the growth of human tumour cell lines (Dengler et al., (1995)).
(§5) Briefly, cells were harvested from exponential phase cultures by trypsinization, counted and plated in 96 well flat-bottomed microtitre plates at a cell density dependent on the cell line (5-10.000 viable cells/well). […] After thawing the plates, fluorescence was measured using the Cytofluor 4000 microplate reader (excitation 530 nm, emission 620 nm), giving a direct relationship to the total number of viable cells.
(§6) Growth inhibition was expressed as treated/control×100 (% T/C). […]

For experiment [4], the system named is CXF HT29. Put plainly: Monolayer proliferation assay (modified propidium iodide assay), CXF HT29. Format: cell-based, human. To be noted: CXF HT29 (colon), 4 days continuous exposure. Here is the method:
as §1, §2, §3, §4, §5, §6

In experiment [5] the test system is LXF 1121L. Kind of experiment: Monolayer proliferation assay (modified propidium iodide assay), LXF 1121L. Format: cell-based, human. To be noted: LXF 1121L (lung, large cell ca), 4 days continuous exposure. Here is the method: as §1, §2, §3, §4, §5, §6
The subject of experiment [6] is MCF-7. Put plainly: Monolayer proliferation assay (modified propidium iodide assay), MCF-7. Format: cell-based, human. Particulars: MCF-7 (breast), 4 days continuous exposure. Here is the method:
as §1, §2, §3, §4, §5, §6

Experiment [7] concerns MEXF 394NL. Put plainly: Monolayer proliferation assay (modified propidium iodide assay), MEXF 394NL. Format: cell-based, human. To be noted: MEXF 394NL (melanoma), 4 days continuous exposure. On the procedure:
as §1, §2, §3, §4, §5, §6

The test system of experiment [8] is DU145. Put plainly: Monolayer proliferation assay (modified propidium iodide assay), DU145. In kind it is cell-based, human. Particulars: DU145 (prostate, PTEN positive), 4 days continuous exposure. On the procedure:
as §1, §2, §3, §4, §5, §6

In experiment [9] the target is Hsp90 (Homo sapiens, UniProt P07900). To be noted: cited from earlier work.

terminal deoxynucleotidyl transferase, sequence (P04053 whole entry, species assumed): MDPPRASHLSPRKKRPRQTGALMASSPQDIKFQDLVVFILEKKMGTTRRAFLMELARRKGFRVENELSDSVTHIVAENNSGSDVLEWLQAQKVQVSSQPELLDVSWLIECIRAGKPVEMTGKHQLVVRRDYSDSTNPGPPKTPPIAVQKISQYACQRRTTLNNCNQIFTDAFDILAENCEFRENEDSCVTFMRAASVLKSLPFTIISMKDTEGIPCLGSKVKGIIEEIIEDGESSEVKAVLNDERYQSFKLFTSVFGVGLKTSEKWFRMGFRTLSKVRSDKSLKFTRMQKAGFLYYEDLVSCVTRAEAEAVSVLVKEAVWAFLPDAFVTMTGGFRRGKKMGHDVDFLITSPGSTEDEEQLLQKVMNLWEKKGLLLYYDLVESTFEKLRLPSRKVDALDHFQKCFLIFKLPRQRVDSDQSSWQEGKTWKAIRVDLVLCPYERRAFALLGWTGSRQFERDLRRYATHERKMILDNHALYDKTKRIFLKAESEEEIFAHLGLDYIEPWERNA

Take `CO[C@H]1[C@@H](OC)C[C@H](C)[C@@H](OC)C2=CC(=O)C=C(NC(=O)/C(C)=C/C=C\[C@H](C)[C@@H](OC(N)=O)/C(C)=C/[C@@H]1C)C2=O` [Macbecin, macbecin]: in experiment [1], the “Reverse transcriptase activity inhibition” value is “not inhibited”. Further, the “terminal deoxynucleotidyl transferase activity inhibition” value in [2] is given as “not inhibited”.
Take 15-desmethoxy macbecin [compound 15]: the “Test/Control (%) at drug concentration” value in [3] (1 μg/mL) turned out to be 44.3%; in experiment [3] (10 μg/mL) it was 12.7%; in experiment [4] (1 μg/mL), 54.7%; in experiment [4] (10 μg/mL) it was 13%; in experiment [5] (1 μg/mL), 47.7%; in experiment [5] (10 μg/mL) it was 14.7%. For the same compound, the “Test/Control (%) at drug concentration” value worked out at 53.3% in experiment [6] (1 μg/mL); 13% in experiment [6] (10 μg/mL); 24.3% in experiment [7] (1 μg/mL); 4.7% in experiment [7] (10 μg/mL); 30.3% in experiment [8] (1 μg/mL); 6.3% in experiment [8] (10 μg/mL).
For `CO[C@H]1C[C@H](C)Cc2cc(O)cc(c2)NC(=O)/C=C/CC[C@H](OC)[C@@H](OC(N)=O)/C(C)=C/[C@H](C)[C@H]1O` [KOSN1559], in experiment [9] (relative to 17-AAG), the “binding affinity to Hsp90, greater than 17-AAG” value is listed as 8 fold. Besides, the “binding affinity to Hsp90, greater than geldanamycin” value in experiment [9] (relative to geldanamycin) was 4 fold.
